Laboratory results taken from patent EP4653443A1, “STEREOISOMER AND DEUTERATED DERIVATIVE OF PYRAZOLOQUINAZOLINE COMPOUND AND USE” (Phil Rivers Technology Co., Ltd, priority 2023, dated 2024).
Converted amounts (≈) assume the structure as drawn.

What was measured:
[1] = Thermodynamic solubility test; assay type: physicochemical; conditions: phosphate buffer, aqueous buffer, thermodynamic from solid, pH 7.4, 25°C
Experimental: Weigh 7.098 g Na2HPO4 (Solution A) and dissolve in 500 mL ultrapure water via sonication; weigh 3.40 g KH2PO4 (Solution B) and dissolve in 250 mL ultrapure water via sonication. Slowly add Solution B dropwise to Solution A and adjust the pH to 7.40 ± 0.05.
Shake at 1100 rpm, 25°C for 5 minutes; • i) Add 10 µL of the 1 mg/mL DMSO sample and 10 µL of buffer to 980 µL of methanol, then dilute 10-fold with methanol:water (1:1) as the standard sample for LC-MS/MS analysis.
Solubility was calculated using Excel. Solubility(μM) = (Areafiltered × DFfiltered)/(Areastd × DFstd) × [std] × DFstd [formula]

[2] = Metabolic stability in liver microsomes (mouse); assay type: in vitro ADME; conditions: for Residual Amount (%) 15 min / Residual Amount (%) 30 min / Residual Amount (%) 45 min / Residual Amount (%) 60 min: Mouse, first line of pair
Experimental: (§1) For negative samples, add 80µL of PBS (100mM, pH = 7.4) solution. Vortex at 800 rpm for 10 seconds, then pre-incubate in a 37°C water bath for 10 minutes. • 4) After pre-incubation, add 2 µL of control drug or test compound to each well to initiate the reaction. The reaction is carried out in a 37°C water bath at 60 rpm. • 5) At 0.5, 15, 30, 45, and 60 minutes, take 50 µL of the reaction system from each well and add it to 200 µL of cold methanol solution containing the internal standard to terminate the reaction. • 6) Mix thoroughly and centrifuge at 4000 rpm at 4°C for 30 minutes. • 7) Take 100µL of supernatant and mix with 100µL ultrapure water for liquid-mass analysis. *Internal standards: 50nM alprazolam, 50nM labetalol and 100nM ketoprofen
(§2) The internal standard method is adopted, and the ratio of the sample peak area to the internal standard peak area is used to calculate the residual percentage (taking the ratio of the sample peak area to the internal standard peak area at 0.5 minutes as 100%).

Caco-2 cells = assay: Permeability and transporter substrate test in Caco-2 cells (ABBA); assay type: in vitro ADME; conditions: Caco-2
Experimental: (§3) Apparent permeability coefficient (Papp, cm/s) and efflux ratio were calculated using Microsoft Excel.

[3] = as above; assay type: in vitro ADME; conditions: human, pH 7.4; for Papp A→B at 2 h, 5 µM: Caco-2, A to B, read-out: Average Papp PappA-B; for Papp B→A at 2 h, 5 µM: Caco-2, B to A, read-out: Average Papp PappB-A; for efflux ratio at 2 h, 5 µM: Caco-2, Papp(B-A)/Papp(A-B), read-out: Efflux Rate (ERa)
Experimental: as §3

[4] = Metabolic stability in liver microsomes (human); assay type: in vitro ADME; conditions: for Residual Amount (%) 15 min / Residual Amount (%) 30 min / Residual Amount (%) 45 min / Residual Amount (%) 60 min: Human, first line of pair; for half-life at 2 µM / microsomal CLint at 2 µM: pH 7.4
Experimental: as §1, §2

in vivo = conditions: iv
Experimental: The objective of this study is to investigate the pharmacokinetic properties of the disclosed compounds after tail vein intravenous injection (IV) and oral administration (PO) in female CD1 mice. Plasma was sampleed at 0, 0.083, 0.25, 0.5, 1, 2, 4, 7 and 24 hours post-dosing, and the drug concentrations in plasma at different time points were detected by LC-MS/MS, and the relevant pharmacokinetic parameters were calculated using WinNonlin software.
Experimental female CD1 mice were purchased from SPF Laboratory Animal Technology Co., Ltd., aged 6-8 weeks with body weights of 20-30 g. The female CD1 mice were housed in a controlled environment (set temperature at 20-25°C and relative humidity at 40-70%). A 12-hour light/12-hour dark cycle was maintained unless interrupted by study-related events.
Compound solutions are prepared in an ultra-clean workbench and prepared immediately before use, and mixed thoroughly prior to use to ensure formulation homogeneity.
Vehicle composition: 10% DMSO+90% (20%SBE-β-CD) Table 4. Doses Used in IV Administration
Vehicle composition: 10% DMSO + 90% (20%SBE-β-CD) Table 5. Doses Used in PO Administration
Vehicle composition: 0.5% MC + 1% Tween-20 Table 6. Doses Used in PO Administration
Prior to the experiment, the animals were randomly grouped. The mice were fasted for 12 hours before drug administration, and free feeding was resumed 4 hours after administration.
All blood samples were transferred into plastic microcentrifuge tubes containing anticoagulant (EDTA-K2), and then centrifuged at 4000 g for 5 minutes at 4°C. The supernatant was transferred into a microcentrifuge tube without anticoagulant, and the plasma was stored in a -75±15°C refrigerator until detection.
The blood samples were purified by HPLC and analyzed by mass spectrometry to obtain the plasma concentration-time curve of the disclosed compound.
The pharmacokinetic parameters were estimated by non-compartmental model method (calculated by Phoenix WinNonlin software).

[5] = test system: pancreatic cancer cell line (PSN1); assay: Proliferation inhibitory activity on cell line PSN1 (CellTiter-Glo, 72 hours); assay type: cell-based; conditions: for IC50: Homo sapiens, PSN1 cell proliferation; for Max Inhibition Percentage: PSN1 cells
Experimental: • a) Adherent cells need to be digested and centrifuged, while suspension cells can be directly centrifuged; • b) Resuspend with complete culture medium and count using an automatic cell counter; • c) Plate 6,000 cells per well for PSN1, and dilute the cell suspension to the required density; • d) Add 100 µL of cells per well, and culture overnight at 37°C in a 5% CO2 incubator to stabilize and balance the cells.
• a) Prepare the compound with DMSO as a solution of 200-fold final concentration; • b) Dilute the 200-fold compound to a 3-fold final concentration with complete culture medium; • c) Add 50 µL of the compound per well, use wells with the same volume of culture medium as controls, and continue culturing in a 37°C, 5% CO2 incubator for 72 hours.
• a) Equilibrate the cell plate and CTG reagent to room temperature; • b) Add 30 µL of CellTiter-Glo® reagent per well; • c) Incubate at room temperature for 15 minutes; • d) Detect with a microplate reader.
• 1) Calculate IC50 using GraphPad Prism 8; • 2) %Inh = (1-(Raw data - Meanmin) / (Meanmax - Meanmin))×100; • 3) Meanmax is the positive control well with only cells and the same volume of culture medium; • 4) Meanmin is the negative control well with only culture medium; • 5) Raw data refers to the signal values of wells with added compounds. For two replicate wells, they are denoted as Raw1 and Raw2.

[6] = test system: Pancreatic cancer cell line BxPC-3; assay: BxPC-3 subcutaneous tumor xenograft mouse model (pancreatic cancer); assay type: in vivo; conditions: for TGI: test endpoint, TGITV
[7] = 90 mg/kg p.o. q.d. 10 consecutive days
[8] = male, CD-1, pH 7.4, Mouse liver microsomes
[9] = female, CD1, mouse, plasma, 10 mg/kg
[10] = 30 mg/kg p.o. q.d. 10 consecutive days
[11] = 60 mg/kg p.o. q.d. 10 consecutive days
[12] = female, CD1, mouse, plasma, 2 mg/kg

Compound	solubility at 24 h [1] [µg/mL]	Residual Amount (%) 15 min [2] [%]	Residual Amount (%) 30 min [2] [%]	Residual Amount (%) 45 min [2] [%]	Residual Amount (%) 60 min [2] [%]	Classification Efflux Transporter Substrate (Caco-2 cells)	Papp A→B at 2 h, 5 µM [3] [×10⁻⁶ cm/s]	Papp B→A at 2 h, 5 µM [3] [×10⁻⁶ cm/s]	efflux ratio at 2 h, 5 µM [3]	Residual Amount (%) 15 min [4] [%]	Residual Amount (%) 30 min [4] [%]	Residual Amount (%) 45 min [4] [%]	Residual Amount (%) 60 min [4] [%]	IC50 [5] [nM]	Max Inhibition Percentage ([5]; first column of this head)	Max Inhibition Percentage ([5]; second column of this head)	half-life at 2 µM [2, 8] [h]	microsomal CLint [2, 8] [µL/min/mg]	half-life at 2 µM ([4]; Human liver microsomes) [h]	microsomal CLint at 2 µM ([4]; Human liver microsomes) [µL/min/mg]	other results
[2H]C1([2H])CN(c2ccc(OC(F)(F)F)c(Nc3ncc4c(n3)-c3c(c(C(N)=O)nn3CCO)CC4)c2)C([2H])([2H])[C@H]2CCCN21 [CPD04]	3 (≈ 5.33 µM)	61.30	39.18	34.10	26.56	Probable (ERa ≧ 2)	4.2	25.1	5.98	52.72	28.62	21.10	13.41	105	87.6	1.3	–	–	–	–	half-life ([2]; Mouse liver microsomes): 0.532 h; microsomal CLint ([2]; Mouse liver microsomes): 43.4 µL/min/mg; half-life ([4]; Human liver microsomes): 0.349 h; microsomal CLint ([4]; Human liver microsomes): 66.2 µL/min/mg; AUC(0-t) (in vivo; mouse, in vivo, 10 mg/kg): 3340 ng·h/mL; Vd (in vivo; mouse, in vivo, 10 mg/kg): 2.31 L/kg; clearance (in vivo; mouse, in vivo, 10 mg/kg): 50.1 mL/min/kg; half-life (in vivo; mouse, in vivo, 10 mg/kg): 1.06 h; Mouse Mortality Rate [6, 7]: 0%; TGI [6, 7]: 53%
[2H]C1([2H])N(C)C([2H])([2H])C([2H])([2H])N(c2ccc(OC(F)(F)F)c(Nc3ncc4c(n3)-c3c(c(C(N)=O)nn3CCO)CC4)c2)C1([2H])[2H] [CPD06]	22.6 (≈ 41.8 µM)	81.80	68.21	64.96	57.01	Probable (ERa ≧ 2)	5.18	34.7	6.71	86.05	73.64	68.37	63.15	57	93.7	13.7	1.27	18.2	1.5	15.4	AUC(0-t) (in vivo; [9]): 3050 ng·h/mL; Vd (in vivo; [9]): 3.02 L/kg; clearance (in vivo; [9]): 55.1 mL/min/kg; half-life (in vivo; [9]): 1.05 h; Mouse Mortality Rate [6, 10]: 0%; TGI [6, 10]: 33%; Mouse Mortality Rate [6, 11]: 0%; TGI [6, 11]: 71%; toxic symptoms during the treatment ([6]; BxPC-3 tumor-bearing mice): No obvious toxic symptoms were observed
CN1CCN(c2ccc(OC(F)(F)F)c(Nc3ncc4c(n3)-c3c(c(C(N)=O)nn3CCO)CC4)c2)CC1 [NMS-P937, onvansertib, reference compound]	24.8 (≈ 46.6 µM)	82.56	69.31	61.60	53.17	Probable (ERa ≧ 2)	6.09	34.2	5.61	80.23	73.16	69.74	58.94	53.7	85.9	2.3	1.11	20.9	1.44	16.1	AUC(0-t) (in vivo; [12]): 353 ng·h/mL; Vd (in vivo; [12]): 5.71 L/kg; clearance (in vivo; [12]): 95.7 mL/min/kg; half-life (in vivo; [12]): 1.52 h; AUC(0-t) (in vivo; [9]): 4540 ng·h/mL; Vd (in vivo; [9]): 3.22 L/kg; clearance (in vivo; [9]): 36.9 mL/min/kg; half-life (in vivo; [9]): 3.52 h; Mouse Mortality Rate [6, 11]: 25%; TGI [6, 11]: 61%; mice died ([6]; 60 mg/kg p.o. q.d., 8 mice per group): 2
